Source: ChEMBL document CHEMBL5352500, “HSF1 Pathway Inhibitor Clinical Candidate (CCT361814/NXP800) Developed from a Phenotypic Screen as a Potential Treatment for Refractory Ovarian Cancer and Other Malignancies” (J Med Chem, 2023)
Calls of active or inactive are those of the source. No cut-off for these calls is given here.

Assays:
[1] = Unbound AUC (0 to 6 hrs) in BALB/c mouse at 5 mg/kg, po or 5 mg/kg, iv measured for 24 hrs by LC-MS/MS analysis; assay type: ADME, organism-based; settings: in vivo
Mus musculus = species on record: Mus musculus; settings: dose 50.0 mg/kg, route po
physchem = settings: buffer, pH 7.4
OVCAR-5 = assay: Antiproliferative activity against human OVCAR-5 cells assessed as cell growth inhibition measured after 96 hrs by resazurin dye based celltiter-blue viability assay; assay type: functional
Caov-3 cell line = assay: Antiproliferative activity against human Caov-3 cells assessed as cell growth inhibition measured after 96 hrs by resazurin dye based celltiter-blue viability assay; assay type: functional
OVCAR-8 = assay: Antiproliferative activity against human OVCAR-8 cells assessed as cell growth inhibition measured after 96 hrs by resazurin dye based celltiter-blue viability assay; assay type: functional
[2] = Stability in pooled mouse plasma assessed as drug degradation at 1 uM; assay type: ADME, cell-free
OVCAR-3 = assay: Antiproliferative activity against human OVCAR-3 cells assessed as cell growth inhibition measured after 96 hrs by resazurin dye based celltiter-blue viability assay; assay type: functional
IGROV-1 = assay: Antiproliferative activity against human IGROV-1 cells assessed as cell growth inhibition measured after 96 hrs by resazurin dye based celltiter-blue viability assay; assay type: functional
PA-1 = assay: Antiproliferative activity against human PA-1 cells assessed as cell growth inhibition measured after 96 hrs by resazurin dye based celltiter-blue viability assay; assay type: functional
CH1 = assay: Antiproliferative activity against human CH1 cells assessed as cell growth inhibition measured after 96 hrs by resazurin dye based celltiter-blue viability assay; assay type: functional
RMG-I = assay: Antiproliferative activity against human RMG-I cell line assessed as cell growth inhibition measured after 96 hrs by resazurin dye based celltiter-blue viability assay; assay type: functional
[3] = Fraction unbound in BALB/c mouse blood at 5 mg/kg, po or 5 mg/kg, iv measured for 24 hrs by LC-MS/MS analysis; assay type: ADME, organism-based
[4] = AUC (0 to 6 hrs) in BALB/c mouse at 5 mg/kg, po measured for 24 hrs by LC-ESI-MS/MS analysis; assay type: ADME, organism-based; parameters: time 24 hrs, dose 5 mg/kg, route po; settings: in vivo
[5] = Reversal of doxorubicin resistance in human doxorubicin resistant CH1 cells assessed as doxorubicin GI50 incubated for 96 hrs by resazurin dye based celltiter-blue cell viability assay (reference value: 310 nM); assay type: functional
[6] = Unbound AUC (0 to 6 hrs) in BALB/c mouse at 5 mg/kg, po or 1 mg/kg, iv measured for 24 hrs by LC-MS/MS analysis; assay type: ADME, organism-based; settings: in vivo

Cc1ccc(NC(=O)c2ccc3c(c2)OCCO3)cc1NC(=O)c1ccc2nc(OCCN3CCCCC3)ccc2c1
fAUC [1]: 0.012 µM·h

CCN1CCN(Cc2ccc3cc(C(=O)Nc4cc(NC(=O)c5ccc6c(c5)OCCO6)ccc4F)ccc3n2)CC1
inhibition (Mus musculus): Active

Cc1ccc(NC(=O)c2ccc3c(c2)OCCO3)cc1NC(=O)c1ccc2nc(OCCN3CCCC3)ccc2c1
logD (physchem): 2.1 | GI50 (OVCAR-5): 50.1 nM | GI50 (Caov-3 cell line): 50.1 nM | GI50 (OVCAR-8): 50.1 nM | Stability [2]: Stable | GI50 (OVCAR-3): 50.1 nM | GI50 (IGROV-1): 50.1 nM | GI50 (PA-1): 50.1 nM | GI50 (CH1): 50.1 nM | GI50 (RMG-I): 50.1 nM

CCN1CCN(Cc2ccc3cc(C(=O)Nc4cc(NC(=O)c5ccc6c(c5)OCCO6)ccc4Cl)ccc3n2)CC1
fAUC [1]: 0.02 µM·h | fraction unbound at 24 h [3]: 0.005 | AUC [4]: 3.9 µM·h

COc1ccc(CCN(C)CCCC(C#N)(c2ccc(OC)c(OC)c2)C(C)C)cc1OC (configuration not stated)
GI50 [5]: 1.9 nM

CC(C)N1CCN(Cc2ccc3cc(C(=O)Nc4cc(NC(=O)c5ccc6c(c5)OCCO6)ccc4Cl)ccc3n2)CC1
fAUC [6]: 0.026 µM·h
